The term inhibition denotes the percentage by which the read-out fell short of the control. A word on the % inhibition: it is the share of the control response that was lost under treatment. A higher % inhibition goes with a response far below the control.

In one test the target is T1, PeiW (Methanothermobacter phage psiM100, UniProt Q7LYX0).
T1 construct: N-terminal His-tag kept, pET151D, E. coli BL21-Rosetta 2; 317 residues and 37,219 Da with tag; monomer
Put plainly: inhibition of EγApNA hydrolysis, […] nm, […] min preincubation. The format is biochemical. The note with it: for inhibition at 1000 µM: read-out: % inhibition at 1 mM.

A further test deals with T2, PeiP (Methanobacterium phage psiM2, UniProt Q77WJ4).
T2 construct: N-terminal His-tag kept, pET151D, E. coli BL21-Rosetta 2; 338 residues and 39,537 Da with tag; monomer
T2 sequence (Q77WJ4 whole entry): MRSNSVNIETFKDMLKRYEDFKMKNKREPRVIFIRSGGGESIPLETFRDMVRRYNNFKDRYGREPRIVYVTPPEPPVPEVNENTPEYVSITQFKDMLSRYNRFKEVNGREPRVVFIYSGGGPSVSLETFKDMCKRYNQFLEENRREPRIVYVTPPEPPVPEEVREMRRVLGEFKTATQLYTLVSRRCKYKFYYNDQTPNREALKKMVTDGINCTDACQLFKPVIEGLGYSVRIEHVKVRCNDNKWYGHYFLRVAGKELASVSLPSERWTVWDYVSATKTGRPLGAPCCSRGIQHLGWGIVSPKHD
The test is described as above. In kind it is biochemical. The following applies: read-out: % inhibition at 1 mM.

T1 sequence (Q7LYX0 whole entry): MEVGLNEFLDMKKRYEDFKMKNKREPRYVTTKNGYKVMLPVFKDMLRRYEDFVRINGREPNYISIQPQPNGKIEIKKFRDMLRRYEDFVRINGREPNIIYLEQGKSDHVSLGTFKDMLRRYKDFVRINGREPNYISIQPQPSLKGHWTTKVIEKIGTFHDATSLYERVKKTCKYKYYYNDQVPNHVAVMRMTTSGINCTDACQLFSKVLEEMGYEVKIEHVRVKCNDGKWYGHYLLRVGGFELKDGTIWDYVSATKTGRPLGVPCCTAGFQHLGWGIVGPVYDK

`NCCSSCCN` [Cystamine]: the inhibition at 1000 µM on PeiW and at PeiP was 100% each time. As to `CN(C)c1cccc2c(S(=O)(=O)NCCCCCN)cccc12` [Dansylcadaverine], the inhibition at 1000 µM at PeiW is 60%; on PeiP it was 50%. The corresponding values for `CC(C)C[C@H](NC(=O)[C@@H]1O[C@H]1C(=O)O)C(=O)NCCCCNC(=N)N` [E64] are 10% and 30%. As for `O=S(=O)(F)Cc1ccccc1` [PMSF], on PeiW (60 °C, pH 7.85, 10 mM CaCl2, 10 mM TCEP), the “% inhibition at 1 mM” value is 10%.

For the origin of these results see paper PMC4592898, “Biochemical Characterisation of Phage Pseudomurein Endoisopeptidases PeiW and PeiP Using Synthetic Peptides” (Archaea, 2015).
